This assay addresses T1, human ferroportin (Homo sapiens, UniProt Q9NP59).
T1 construct: luciferase reporter (read with the Nano-Glo Luciferase Assay System); expressed in transfected cells; host or cells: CHO cells, stably transfected, expression induced with doxycycline
T1 sequence (Q9NP59 1-571): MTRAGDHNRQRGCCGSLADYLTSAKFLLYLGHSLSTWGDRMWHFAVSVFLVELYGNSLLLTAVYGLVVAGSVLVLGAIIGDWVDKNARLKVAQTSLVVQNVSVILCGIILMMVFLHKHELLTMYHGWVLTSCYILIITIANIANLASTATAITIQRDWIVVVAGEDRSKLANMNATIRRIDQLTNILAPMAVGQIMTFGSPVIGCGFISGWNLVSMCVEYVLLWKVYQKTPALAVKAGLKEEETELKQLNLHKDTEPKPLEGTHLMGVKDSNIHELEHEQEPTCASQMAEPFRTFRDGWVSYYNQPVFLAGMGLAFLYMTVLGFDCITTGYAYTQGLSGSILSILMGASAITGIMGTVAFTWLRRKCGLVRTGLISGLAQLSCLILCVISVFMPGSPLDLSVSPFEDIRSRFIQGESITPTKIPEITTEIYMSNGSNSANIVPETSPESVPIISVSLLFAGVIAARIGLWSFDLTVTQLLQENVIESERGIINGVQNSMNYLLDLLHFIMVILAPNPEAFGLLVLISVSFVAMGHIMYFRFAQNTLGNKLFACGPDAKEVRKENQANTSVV
Nature of the assay: Biological in-vitro ferroportin internalization assay (luciferase reporter). The assay is classed as cell-based. As to conditions: average pEC50; stably-transfected CHO cell line expressing human ferroportin tagged to a luciferase reporter; 6 h incubation with test compound. In short, it runs like this: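 Read-out is Nano-Glo luciferase signal after 6 h compound exposure, with average pEC50 derived. Cells are a stable CHO line carrying luciferase-tagged human ferroportin, pre-loaded 24 h with ferric ammonium citrate and doxycycline-induced for 24 h.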
Background: Reporter assays use an easily measured gene product as a stand-in for the process of interest.

Molecules are shown by their SMILES.

As a reminder, the pEC50 is −log10 of the EC50, conventionally taken in molar units. Read a high pEC50 as a low EC50.

`CN(CC(=O)NC(C)(C)C)c1cc(-c2ncccn2)nc2c1CCC2` [Compound 67, N-tert-butyl-2-{methyl[2-(pyrimidin-2-yl)-5H,6H,7H-cyclopenta[b]pyridin-4-yl]amino}acetamide] showed a pEC50 of 6.6.

`Cc1ccnc(-c2cc(N(C)CC(=O)NC(C)(C)C)c3c(n2)CCC3)c1` [Compound 68, N-tert-butyl-2-{methyl[2-(4-methylpyridin-2-yl)-5H,6H,7H-cyclopenta[b]pyridin-4-yl]amino}acetamide]: the pEC50 amounted to 7.2.

On to `Cc1cnc(CCNC(=O)CN(C)c2nc(-c3ccccn3)nc3c2CCC3)n1C1CCC1` [Compound 69, N-[2-(1-cyclobutyl-5-methyl-1H-imidazol-2-yl)ethyl]-2-{methyl[2-(pyridin-2-yl)-5H,6H,7H-cyclopenta[d]pyrimidin-4-yl]amino}acetamide], for which the pEC50 worked out at 7.

`CN(CC(=O)Nc1nnc(N2CCCCCC2)s1)c1nc(-c2ccccn2)nc2c1CCC2` [Compound 70, N-[5-(azepan-1-yl)-1,3,4-thiadiazol-2-yl]-2-{methyl[2-(pyridin-2-yl)-5H,6H,7H-cyclopenta[d]pyrimidin-4-yl]amino}acetamide] registered a negative-log EC50 (pEC50) of 7.4.

Regarding `c1ccc(-c2nc3c(c(N4CC5CC4CO5)n2)CCC3)nc1` (stereo not drawn) [Compound 72, 5-[2-(pyridin-2-yl)-5H,6H,7H-cyclopenta[d]pyrimidin-4-yl]-2-oxa-5-azabicyclo[2.2.1]heptane], the pEC50 was found to be 5.5.

The compound `CN(Cc1ccccn1)c1nc(-c2ccccn2)nc2c1CCC2` [Compound 73, N-methyl-2-(pyridin-2-yl)-N-[(pyridin-2-yl)methyl]-5H,6H,7H-cyclopenta[d]pyrimidin-4-amine] displayed a pEC50 of 6.8.

In the case of `COc1ccc(NC(=O)CN(C)c2nc(-c3ccccn3)nc3c2CCC3)cc1` [Compound 75, N-(4-methoxyphenyl)-2-{methyl[2-(pyridin-2-yl)-5H,6H,7H-cyclopenta[d]pyrimidin-4-yl]amino}acetamide], the pEC50 came out at 7.5.

Compound `c1ccc(-c2nc3c(c(N4CCCc5ccccc54)n2)CCC3)nc1` [Compound 76, 1-[2-(pyridin-2-yl)-5H,6H,7H-cyclopenta[d]pyrimidin-4-yl]-1,2,3,4-tetrahydroquinoline] had a negative logarithm of the EC50 (pEC50) of 6.

`CN(CC(=O)Nc1ccccc1)c1nc(-c2ccccn2)nc2c1CCC2` [Compound 77, 2-{methyl[2-(pyridin-2-yl)-5H,6H,7H-cyclopenta[d]pyrimidin-4-yl]amino}-N-phenylacetamide] came in with a negative logarithm of the EC50 (pEC50) of 7.

The compound `CN(CC(=O)NC1CCCCC1)c1nc(-c2ccccn2)nc2c1CCC2` [Compound 78, N-cyclohexyl-2-{methyl[2-(pyridin-2-yl)-5H,6H,7H-cyclopenta[d]pyrimidin-4-yl]amino}acetamide] returned a pEC50 of 7.4.

Regarding `CN(CC(=O)NC1CCOCC1)c1nc(-c2ccccn2)nc2c1CCC2` [Compound 79, 2-{methyl[2-(pyridin-2-yl)-5H,6H,7H-cyclopenta[d]pyrimidin-4-yl]amino}-N-(oxan-4-yl)acetamide], the pEC50 is recorded as 6.5.

In the case of `CCN(Cc1ncccn1)c1nc(-c2ccccn2)nc2c1CCC2` [Compound 80, N-ethyl-2-(pyridin-2-yl)-N-[(pyrimidin-2-yl)methyl]-5H,6H,7H-cyclopenta[d]pyrimidin-4-amine], the pEC50 is reported as 6.8.

In turn, `CN(Cc1ncccn1)c1nc(-c2ccccn2)nc2c1CCC2` [Compound 81, N-methyl-2-(pyridin-2-yl)-N-[(pyrimidin-2-yl)methyl]-5H,6H,7H-cyclopenta[d]pyrimidin-4-amine] came in with a negative logarithm of the EC50 (pEC50) of 6.8.

`CN(Cc1nc2ccccc2o1)c1nc(-c2ccccn2)nc2c1CCC2` [Compound 82, N-[(1,3-benzoxazol-2-yl)methyl]-N-methyl-2-(pyridin-2-yl)-5H,6H,7H-cyclopenta[d]pyrimidin-4-amine] showed a pEC50 of 6.8.

The compound `c1ccc(-c2nc3c(c(N4CCc5ccccc5CC4)n2)CCC3)nc1` [Compound 83, 3-[2-(pyridin-2-yl)-5H,6H,7H-cyclopenta[d]pyrimidin-4-yl]-2,3,4,5-tetrahydro-1H-3-benzazepine] displayed a pEC50 of 6.9.

For `COCCN(C)c1nc(-c2ccccn2)nc2c1CCC2` [Compound 84, N-(2-methoxyethyl)-N-methyl-2-(pyridin-2-yl)-5H,6H,7H-cyclopenta[d]pyrimidin-4-amine], the pEC50 was found to be 6.6.

`CN1CCCN(c2nc(-c3ccccn3)nc3c2CCC3)CC1` [Compound 85, 1-methyl-4-[2-(pyridin-2-yl)-5H,6H,7H-cyclopenta[d]pyrimidin-4-yl]-1,4-diazepane] displayed a pEC50 of 5.5.

Take `CN(CC(=O)N1CCOCC1)c1nc(-c2ccccn2)nc2c1CCC2` [Compound 86, 2-{methyl[2-(pyridin-2-yl)-5H,6H,7H-cyclopenta[d]pyrimidin-4-yl]amino}-1-(morpholin-4-yl)ethan-1-one]: the negative-log EC50 (pEC50) worked out at 6.8.

In turn, `CN(CCOc1ccccc1)c1nc(-c2ccccn2)nc2c1CCC2` [Compound 87, N-methyl-N-(2-phenoxyethyl)-2-(pyridin-2-yl)-5H,6H,7H-cyclopenta[d]pyrimidin-4-amine] showed a pEC50 of 6.6.

On to `CN(CC(=O)N1CCCCC1)c1nc(-c2ccccn2)nc2c1CCC2` [Compound 88, 2-{methyl[2-(pyridin-2-yl)-5H,6H,7H-cyclopenta[d]pyrimidin-4-yl]amino}-1-(piperidin-1-yl)ethan-1-one], for which the pEC50 came out at 7.1.

The compound `CN(CC(=O)NC(C)(C)C)c1nc(-c2ccccn2)nc2c1CCC2` [Compound 89, N-tert-butyl-2-{methyl[2-(pyridin-2-yl)-5H,6H,7H-cyclopenta[d]pyrimidin-4-yl]amino}acetamide] returned a negative-log EC50 (pEC50) of 7.3.

`CC(C(=O)NC(C)(C)C)N(C)c1nc(-c2ccccn2)nc2c1CCC2` (stereo not drawn) [Compound 90, N-tert-butyl-2-{methyl[2-(pyridin-2-yl)-5H,6H,7H-cyclopenta[d]pyrimidin-4-yl]amino}propanamide] had a pEC50 of 7.4.

The compound `CC(C(=O)NC1CCCCC1)N(C)c1nc(-c2ccccn2)nc2c1CCC2` (stereo not drawn) [Compound 91, N-cyclohexyl-2-{methyl[2-(pyridin-2-yl)-5H,6H,7H-cyclopenta[d]pyrimidin-4-yl]amino}propanamide] gave a pEC50 of 7.3.

As to `c1ccc(-c2nc3c(c(N4CCCCCC4)n2)CCC3)nc1` [Compound 92, 1-[2-(pyridin-2-yl)-5H,6H,7H-cyclopenta[d]pyrimidin-4-yl]azepane], the pEC50 was 6.5.

The compound `c1ccc(-c2nc3c(c(N4CCCOCC4)n2)CCC3)nc1` [Compound 93, 4-[2-(pyridin-2-yl)-5H,6H,7H-cyclopenta[d]pyrimidin-4-yl]-1,4-oxazepane] yielded a pEC50 of 6.1.

In the case of `c1nc(-c2nc3c(c(N4CCCCCC4)n2)CCC3)cs1` [Compound 94, 1-[2-(1,3-thiazol-4-yl)-5H,6H,7H-cyclopenta[d]pyrimidin-4-yl]azepane], the pEC50 is 6.3.

The compound `CN(c1nc(-c2ccccn2)nc2c1CCC2)C1CCN(c2ccccc2)C1=O` (stereo not drawn) [Compound 95, 3-{methyl[2-(pyridin-2-yl)-5H,6H,7H-cyclopenta[d]pyrimidin-4-yl]amino}-1-phenylpyrrolidin-2-one] yielded a pEC50 of 7.3.

In turn, `Clc1ccnc(-c2nc3c(c(N4CCCCCC4)n2)CCC3)c1` [Compound 96, 1-[2-(4-chloropyridin-2-yl)-5H,6H,7H-cyclopenta[d]pyrimidin-4-yl]azepane] displayed a pEC50 of 6.6.

Regarding `Cn1cnc(-c2nc3c(c(N4CCCCCC4)n2)CCC3)c1` [Compound 97, 1-[2-(1-methyl-1H-imidazol-4-yl)-5H,6H,7H-cyclopenta[d]pyrimidin-4-yl]azepane], the pEC50 was determined as 7.1.

Compound `CN(CC(=O)NC1(C(F)(F)F)CC1)c1nc(-c2ccccn2)nc2c1CCC2` [Compound 98, 2-{methyl[2-(pyridin-2-yl)-5H,6H,7H-cyclopenta[d]pyrimidin-4-yl]amino}-N-[1-(trifluoromethyl)cyclopropyl]acetamide] showed a pEC50 of 7.

Consider `COc1ccnc(-c2nc3c(c(N(C)CC(=O)NC4(C(F)(F)F)CC4)n2)CCC3)c1` [Compound 99, 2-{[2-(4-methoxypyridin-2-yl)-5H,6H,7H-cyclopenta[d]pyrimidin-4-yl](methyl)amino}-N-[1-(trifluoromethyl)cyclopropyl]acetamide], for which the pEC50 amounted to 7.3.

Regarding `CCc1ccnc(-c2nc3c(c(N(C)CC(=O)NC(C)(C)C)n2)CCC3)c1` [Compound 100, N-tert-butyl-2-{[2-(4-ethylpyridin-2-yl)-5H,6H,7H-cyclopenta[d]pyrimidin-4-yl](methyl)amino}acetamide], the pEC50 stood at 7.5.

With `COc1ccnc(-c2nc3c(c(N(C)[C@H](C)C(=O)NC(C)(C)C)n2)CCC3)c1` [Compound 101, (2R)—N-tert-butyl-2-{[2-(4-methoxypyridin-2-yl)-5H,6H,7H-cyclopenta[d]pyrimidin-4-yl](methyl)amino}propanamide], the pEC50 was determined as 8.2.

Source of the values: patent US11746100B2 (GLOBAL BLOOD THERAPEUTICS, INC., priority 2020, dated 2023).
